# Reference: US3939266A, “Substituted sulfonylacetamido cephalosporins” (SmithKline Corporation, priority 1974, dated 1976)
# Legend:
# Type in all cases: cell-based
# Strep. faecalis HH 34358 = assay: MIC against Strep. faecalis HH 34358; details: Enterococcus faecalis, HH34358
# Entero. cloaca PaSL 969 = assay: MIC against Entero. cloaca PaSL 969
# E. coli SK 12140 = assay: MIC against E. coli SK 12140; details: Escherichia coli, SK12140; E. coli SK 12140; read-out: MIC
# Serra. marc. ATCC 13880 = assay: MIC against Serra. marc. ATCC 13880
# Salmonella ATCC 12176 = assay: MIC against Salmonella ATCC 12176; details: ATCC12176; Salmonella ATCC 12176; read-out: MIC
# Kleb. pneumo. SK 4200 = assay: MIC against Kleb. pneumo. SK 4200
# S. aureus SK 23390 = assay: MIC against S. aureus SK 23390; details: Staphylococcus aureus, SK23390
# [1] = test system: Entero. aerog. ATCH 13048; assay: MIC against Entero. aerog. ATCH 13048
# Pseudo. sp. HH 63 = assay: MIC against Pseudo. sp. HH 63
# E. coli HH 33779 = assay: MIC against E. coli HH 33779; details: Escherichia coli, HH33779
# Kleb. pneumo. SK 1200 = assay: MIC against Kleb. pneumo. SK 1200
# Shigella HH 112 = assay: MIC against Shigella HH 112; details: HH112; Shigella HH 112; read-out: MIC
# S. aureus HH 127 = assay: MIC against S. aureus HH 127; details: Staphylococcus aureus, HH127
# Strep. pyog. C 203 = assay: MIC against Strep. pyog. C 203
# S. villaluz = assay: MIC against S. villaluz
SMILES,MIC (Strep. faecalis HH 34358),MIC (Entero. cloaca PaSL 969),MIC (E. coli SK 12140),MIC (Serra. marc. ATCC 13880),MIC (Salmonella ATCC 12176),MIC (Kleb. pneumo. SK 4200),MIC (S. aureus SK 23390),MIC [1],MIC (Pseudo. sp. HH 63),MIC (E. coli HH 33779),MIC (Kleb. pneumo. SK 1200),MIC (Shigella HH 112),MIC (S. aureus HH 127),MIC (Strep. pyog. C 203),MIC (S. villaluz)
"CC(=O)OCC1=C(C(=O)O)N2C(=O)C(NC(=O)CS(=O)(=O)c3ccccc3)C2SC1 (stereo not drawn) [Compound 57359, 7-Phenylsulfonylacetamidocephalosporanic acid]",50 µg/mL,> 200 µg/mL,50 µg/mL,> 200 µg/mL,12.5 µg/mL,12.5 µg/mL,0.8 µg/mL,> 200 µg/mL,> 200 µg/mL,100 µg/mL,6.3 µg/mL,25 µg/mL,1.6 µg/mL,0.2 µg/mL,–
"Cc1nnc(SCC2=C(C(=O)O)N3C(=O)C(NC(=O)CS(=O)(=O)c4ccccc4)[C@H]3SC2)s1 (stereo partly drawn) [Compound 57360, 7-Phenylsulfonylacetamido-3-(2-methyl-1,3,4-thiadiazol-5-ylthiomethyl)-3-cephem-4-carboxylic acid]",25 µg/mL,> 200 µg/mL,25 µg/mL,> 200 µg/mL,25 µg/mL,25 µg/mL,0.4 µg/mL,> 200 µg/mL,> 200 µg/mL,100 µg/mL,12.5 µg/mL,25 µg/mL,0.8 µg/mL,0.1 µg/mL,–
"CC(=O)OCC1=C(C(=O)O)N2C(=O)C(NC(=O)CS(N)(=O)=O)C2SC1 (stereo not drawn) [Compound 59393, 7-Aminosulfonylacetamidocephalosporanic acid]",50 µg/mL,100 µg/mL,50 µg/mL,> 200 µg/mL,12.5 µg/mL,25 µg/mL,1.6 µg/mL,200 µg/mL,> 200 µg/mL,50 µg/mL,25 µg/mL,25 µg/mL,1.6 µg/mL,0.1 µg/mL,–
Cn1c(SCC2=C(C(=O)O)N3C(=O)C(NC(=O)CS(C)(=O)=O)C3SC2)n[nH]c1=O (stereo not drawn) [Compound 59857],100 µg/mL,–,25 µg/mL,> 200 µg/mL,3.1 µg/mL,6.3 µg/mL,1.6 µg/mL,> 200 µg/mL,> 200 µg/mL,50 µg/mL,6.3 µg/mL,25 µg/mL,1.6 µg/mL,0.2 µg/mL,25 µg/mL
"CCS(=O)(=O)CC(=O)NC1C(=O)N2C(C(=O)O)=C(CSc3nnc(C)s3)CSC12 (stereo not drawn) [Compound 59641, 7-Ethyldulfonylacetamido-3-(2-methyl-1,3,5-thiadiazol-5-yl-thiomethyl)-3-cephem-4-carboxylic acid]",25 µg/mL,–,3.1 µg/mL,> 200 µg/mL,1.6 µg/mL,1.6 µg/mL,0.4 µg/mL,100 µg/mL,> 200 µg/mL,12.5 µg/mL,1.6 µg/mL,6.3 µg/mL,0.4 µg/mL,0.1 µg/mL,–
"CCS(=O)(=O)CC(=O)NC1C(=O)N2C(C(=O)O)=C(COC(C)=O)CSC12 (stereo not drawn) [Compound 59623, 7-Ethylsulfonylacetamidocephalosporanic acid]",100 µg/mL,–,25 µg/mL,> 200 µg/mL,3.1 µg/mL,6.3 µg/mL,0.8 µg/mL,200 µg/mL,> 200 µg/mL,50 µg/mL,6.3 µg/mL,25 µg/mL,0.8 µg/mL,0.1 µg/mL,100 µg/mL
"CC(=O)OCC1=C(C(=O)O)N2C(=O)C(NC(=O)CS(C)(=O)=O)C2SC1 (stereo not drawn) [Compound 54293, 7-Methylsulfonylacetamidocephalosporanic acid]",200 µg/mL,> 200 µg/mL,12.5 µg/mL,–,12.5 µg/mL,12.5 µg/mL,1.6 µg/mL,> 200 µg/mL,> 200 µg/mL,25 µg/mL,12.5 µg/mL,25 µg/mL,3.1 µg/mL,0.4 µg/mL,–
